Test [1] relates to DRG neuron spike discharge triggered by activation of TRPV1 channels by capsaicin. The experiment in a line: Capsaicin-evoked DRG neuron spike discharge. In kind it is cell-based. Here is the method:
(§1) For current-clamp recordings in DRG neurons, the patch pipettes were filled with (in mM): 135 KCl, 1 K2ATP, 1 MgATP, 2 EGTA, 1.1 CaCl2, 5 glucose (free [Ca^2+]i=87 nM), 10 HEPES, adjusted with KOH at pH 7.4 (315 mOsm). The external solution contained (in mM): 150 NaCl, 2.5 KCl, 2 CaCl2, 2 MgCl2, 15 glucose, 10 HEPES, adjusted with NaOH at pH 7.4 (325 mOsm). Drug exposure was evoked by rapid application using a fast perfusion system (AutoMate Scientific).
The dual targeting and the synergistic effect of NH91 is further illustrated in FIGS. 17A-B and 18A-B, by its effect on the DRG neuron spike discharge triggered by the activation of TRPV1 channels by 1 μM capsaicin.

Test [2] addresses T1, recombinant Kv7.2/3 channels (Homo sapiens, UniProt O43525+O43526).
T1 construct: expressed in transfected cells; host or cells: CHO cells
The experiment in a line: Whole-cell patch clamp of recombinant Kv7.2/3 currents in transfected CHO cells. As to conditions: for V50 (parameter of potency for Kv7.2/3 At 5 μM): compound at 5 μM, N = 5-12; for EC50: N = 5-10; for increase of the amplitude of recombinant Kv7.2/3 currents: 5 μM compound, at −40 mV, CHO cells. In kind it is cell-based. Here is the method: Chinese hamster ovary CHO cells were grown in Dulbecco's modified Eagle's medium supplemented with 2 mM glutamine, 10% fetal calf serum, and antibiotics. In brief, 40,000 cells seeded on poly-D-lysine-coated glass coverslips (13 mm in diameter) in a 24-multiwell plate were transfected with pIRES-CD8 (0.3 μg) as a marker for transfection with 0.5 μg Kv7.2 and 0.5 μg Kv7.3. Transfection was performed using 3.6 μl of X-tremeGENE 9 (Roche) according to the manufacturer's protocol. For electrophysiology, transfected cells were visualized approximately 40 h after transfection, using the anti-CD8 antibody coated beads method.
(§2) For Kv7.2 potassium current recordings, the patch pipettes were pulled from borosilicate glass (Warner Instrument Corp) with a resistance of 3-7 MΩ, and were filled with (in mM): 130 KCl, 5 Mg ATP, 5 EGTA, 10 HEPES, pH 7.3 (adjusted with KOH), and sucrose was added to adjust osmolarity to 290 mOsmol. The external solution contained (in mM): 140 NaCl, 4 KCl, 1.2 MgCl2, 1.8 CaCl2, 11 glucose, 5.5 HEPES, pH 7.3 (adjusted with NaOH), and sucrose was added to adjust osmolarity to 310 mOsmol. […] For TRPV1 current recordings, the solutions were the same as those used for Kv7.2, except that the extracellular solution contained no CaCl2 to limit desensitization and included 1 mM EGTA and 1 mM MgCl2.
Chinese hamster ovary CHO cells were grown in Dulbecco's modified Eagle's medium supplemented with 2 mM glutamine, 10% fetal calf serum, and antibiotics. In brief, 40,000 cells seeded on poly-D-lysine-coated glass coverslips (13 mm in diameter) in a 24-multiwell plate were transfected with pIRES-CD8 (0.3 μg) as a marker for transfection with 0.5 μg of Kv7.2 and Kv7.3 cDNA plasmids. Transfection was performed using 3.6 μl of X-tremeGENE 9 (Roche) according to the manufacturer's protocol. For electrophysiology, transfected cells were visualized approximately 40 h after transfection, using the anti-CD8 antibody coated beads method. Recordings were performed using the whole cell configuration of the patch clamp technique. Signals were amplified using an Axopatch 200B patch-clamp amplifier (Axon Instruments), sampled at 5 kHz and filtered at 2.4 kHz via a four pole Bessel low pass filter. Data were acquired using pClamp 10.5 software in conjunction with a DigiData 1440A interface. The patch pipettes were pulled from borosilicate glass (Harvard Apparatus) with a resistance of 3-7 megaohms. The intracellular pipette solution contained 130 mM KCl, 5 mM K2-ATP, 5 mM EGTA (or 5 mM BAPTA when indicated), 10 mM HEPES, pH 7.3 (adjusted with KOH), CaCl2 (as needed for different values of free Ca2+ concentration according to MAXCHELATOR software, with sucrose added to adjust osmolarity to 290 mosmol. The external solution contained 140 mM NaCl, 4 mM KCl, 1.8 mM CaCl2, 1.2 mM MgCl2, 11 mM glucose, 5.5 mM HEPES, adjusted with NaOH to pH 7.3 (310 mOsM). Series resistances were compensated (75-90%) and periodically monitored. Data analysis was performed using the Clampfit program (pClamp 10.5; Axon Instruments), Microsoft Excel (Microsoft, Redmond, Wash.), and Prism 5.0 (GraphPad Software, Inc., San Diego, Calif.). Leak subtraction was performed off-line, using the Clampfit program of the pClamp 10.5 software.
The normalized conductance was plotted as a function of the test voltages, for cells in the absence and presence of the drug. Chord conductance (G) was calculated by using the following equation: G=I/(V−Vrev), where I corresponds to the current amplitude measured at the end of the pulse, and Vrev is the calculated reversal potential assumed to be −90 mV in CHO cells. G was estimated at various test voltages (V) and then normalized to a maximal conductance value, Gmax. Activation curves were fitted by one Boltzmann distribution: G/Gmax=1/{1+exp[(V50−V)/s]}, where V50 is the voltage at which the current is half-activated and s is the slope factor.

Test [3] concerns nociceptive dorsal root (DRG) sensory neurons. The test can be described thus: Current-clamp recording of evoked spike discharge in DRG neurons. The test is classed as cell-based, rat. How it is done: Inhibition of the evoked spike discharge of nociceptive dorsal root (DRG) sensory neurons was tested as follows:
as §1

In test [4] the target is T2, recombinant TRPV1 channel (Homo sapiens, UniProt Q8NER1).
T2 construct: expressed in transfected cells; host or cells: CHO cells
The experiment in a line: Whole-cell recording of capsaicin-activated recombinant TRPV1 currents in transfected CHO cells. The test is classed as cell-based. Here is the method:
as §2
Inhibition of recombinant TRPV1 channel was tested as described in Example 2 hereinabove.
TRPV1 whole-cell currents were activated by exposing transfected CHO cells to 0.5 μM capsaicin at a holding potential of −60 mV.
FIG. 9 presents the effect of 5 μM NH66 on recombinant TRPV1 currents activated by 0.1 μM capsaicin (CAP). In FIG. 9 are shown the TRPV1 currents evoked by application of 0.1 μM capsaicin to transfected CHO cells. In the upper panel are shown the currents only evoked by application of 0.1 μM capsaicin; in the middle panel, are shown the currents first evoked by application of 0.1 μM capsaicin+5 μM NH66, then by 0.1 μM capsaicin only.

A further test has as its target cardiac Herg channel (Homo sapiens, UniProt Q12809). The experiment in a line: Cardiac channel Herg current recordings.
Test [5] relates to inward voltage-dependent Ca2+ and Na+ current in DRG neurons. The experiment in a line: Inward voltage-dependent Ca2+ and Na+ current in DRG neurons. In kind it is cell-based. Particulars: 5 μM.
Setting [6] is: N = 5-10, Retigabine: No effect at 30, read-out: IC50 on TRPV1.
The mark [7] stands for this setting: Rattus norvegicus, Neuron, N = 5-10, read-out: IC50 on inhibition of evoked spike discharge in DRG sensory neurons.
The mark [8] stands for this setting: DRG neuron, rat DRG neurons, read-out: IC50 of inhibition of evoked spike discharge of nociceptive DRG sensory neurons.

Read-outs that look alike come from different tables or passages of the source. Where only a bound is given, the exact number is not on record here.

One may read the inhibition as the drop in the measured response relative to a control, in per cent. What is called IC50 is the concentration that inhibits the measured activity by half. The EC50 is the concentration at which the effect is half-maximal.

T2 sequence (Q8NER1 whole entry): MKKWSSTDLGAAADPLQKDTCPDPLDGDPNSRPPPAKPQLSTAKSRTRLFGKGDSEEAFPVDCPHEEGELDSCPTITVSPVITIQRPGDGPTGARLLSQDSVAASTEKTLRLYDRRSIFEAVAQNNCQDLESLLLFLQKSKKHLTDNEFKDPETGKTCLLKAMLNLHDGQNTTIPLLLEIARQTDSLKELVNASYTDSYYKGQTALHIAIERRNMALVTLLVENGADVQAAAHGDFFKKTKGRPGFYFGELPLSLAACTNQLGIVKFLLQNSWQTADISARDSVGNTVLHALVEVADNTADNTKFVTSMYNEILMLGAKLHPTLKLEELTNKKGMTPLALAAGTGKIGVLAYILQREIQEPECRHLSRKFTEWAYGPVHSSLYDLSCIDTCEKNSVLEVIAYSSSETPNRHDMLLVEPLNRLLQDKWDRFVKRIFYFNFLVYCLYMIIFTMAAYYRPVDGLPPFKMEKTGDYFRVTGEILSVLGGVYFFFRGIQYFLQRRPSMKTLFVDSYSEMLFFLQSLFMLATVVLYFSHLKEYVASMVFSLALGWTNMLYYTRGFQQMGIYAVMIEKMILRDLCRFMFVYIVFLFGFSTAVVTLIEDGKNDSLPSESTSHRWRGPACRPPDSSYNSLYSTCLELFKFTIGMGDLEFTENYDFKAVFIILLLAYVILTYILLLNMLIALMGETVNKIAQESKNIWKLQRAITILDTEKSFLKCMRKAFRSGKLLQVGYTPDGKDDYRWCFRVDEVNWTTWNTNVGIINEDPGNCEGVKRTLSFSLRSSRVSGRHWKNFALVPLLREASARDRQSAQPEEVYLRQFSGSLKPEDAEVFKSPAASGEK
cardiac Herg channel, sequence (Q12809 whole entry): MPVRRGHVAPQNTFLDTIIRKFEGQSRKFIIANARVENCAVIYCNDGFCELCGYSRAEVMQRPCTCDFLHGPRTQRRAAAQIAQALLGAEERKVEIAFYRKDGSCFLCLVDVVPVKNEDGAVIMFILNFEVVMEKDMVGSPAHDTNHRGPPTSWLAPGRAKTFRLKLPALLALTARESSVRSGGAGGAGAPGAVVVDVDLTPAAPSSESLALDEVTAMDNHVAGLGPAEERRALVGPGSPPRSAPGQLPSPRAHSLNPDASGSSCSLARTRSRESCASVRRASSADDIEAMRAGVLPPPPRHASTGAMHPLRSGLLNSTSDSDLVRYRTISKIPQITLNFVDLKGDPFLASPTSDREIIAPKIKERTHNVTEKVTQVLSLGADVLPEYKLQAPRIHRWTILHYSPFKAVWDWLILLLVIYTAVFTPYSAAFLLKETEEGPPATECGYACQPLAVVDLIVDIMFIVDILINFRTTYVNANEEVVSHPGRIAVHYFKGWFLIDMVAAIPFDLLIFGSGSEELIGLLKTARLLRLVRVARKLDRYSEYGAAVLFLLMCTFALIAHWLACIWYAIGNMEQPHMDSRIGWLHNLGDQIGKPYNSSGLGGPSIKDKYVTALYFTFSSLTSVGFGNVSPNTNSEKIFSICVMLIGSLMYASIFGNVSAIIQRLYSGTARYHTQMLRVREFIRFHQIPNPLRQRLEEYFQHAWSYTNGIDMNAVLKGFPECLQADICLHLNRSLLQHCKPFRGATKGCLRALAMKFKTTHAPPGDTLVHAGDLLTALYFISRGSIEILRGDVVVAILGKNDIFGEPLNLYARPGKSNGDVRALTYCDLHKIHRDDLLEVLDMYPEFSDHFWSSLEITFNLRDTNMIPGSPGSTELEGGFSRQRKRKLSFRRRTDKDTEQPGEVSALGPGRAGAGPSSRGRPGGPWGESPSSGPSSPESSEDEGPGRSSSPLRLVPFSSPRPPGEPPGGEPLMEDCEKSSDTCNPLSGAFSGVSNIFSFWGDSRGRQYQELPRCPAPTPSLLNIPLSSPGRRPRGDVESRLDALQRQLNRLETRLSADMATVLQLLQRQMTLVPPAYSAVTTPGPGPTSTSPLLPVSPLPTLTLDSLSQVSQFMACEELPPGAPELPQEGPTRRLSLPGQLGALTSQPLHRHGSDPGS
Description for cardiac Herg channel: Cardiac channel Herg current recordings were performed as follows:
Cells were held at −90 mV and stepped for 1.5 s from −70 mV to +30 mV in 10 mV increments and repolarized at −60 mV.

Take `CC(=O)Nc1nc2c(Oc3cc(-c4ccc(C(F)(F)F)cc4)ncn3)cccc2s1` [AMG 517, reference compound]: in test [1] (DRG neuron, read-out: inhibition of capsaicin-evoked DRG spikes), the inhibition at 0.1 µM was determined as 42%.
`O=C(Cc1cc([N+](=O)[O-])cc([N+](=O)[O-])c1Nc1c(Cl)cc([N+](=O)[O-])cc1Cl)NCCO` [NH29, reference compound]: in test [2], the “V50 (parameter of potency for Kv7.2/3 At 5 μM)” value is −27.4 mV. Further, the IC50 was 18 µM in test [3] (Rattus norvegicus, Neuron, read-out: IC50 on inhibition of evoked spike discharge in DRG sensory neurons); 4.2 µM in test [4] (setting [6]); 5 µM against cardiac Herg channel.
Turning to `O=C(Cc1ccc(Nc2c(Cl)cc(C(F)(F)F)cc2Cl)cc1)NCCO` [NH34, reference compound], the EC50 in test [2] was found to be 17.5 µM. In addition, the “V50 (parameter of potency for Kv7.2/3 At 5 μM)” value in test [2] is reported as −28.1 mV. Besides, the concentration for half-maximal inhibition (IC50) in test [3] (setting [7]) is 25 µM; in test [4] (setting [6]), 55 µM; on cardiac Herg channel, 35 µM.
`O=C(Cc1cc(Nc2c(Cl)cc(Cl)cc2Cl)ccc1F)NCCO` [NH43, reference compound]: the “increase of the amplitude of recombinant Kv7.2/3 currents” value in test [2] is on record as “about 3.5 fold”. Besides, the EC50 in test [2] was determined as 0.6 µM. Further, the “V50 (parameter of potency for Kv7.2/3 At 5 μM)” value in test [2] is −42.0 mV. The 50% inhibitory concentration (IC50) in test [3] (setting [8]) is 0.3 µM; in test [3] (setting [7]), 0.3 µM; in test [4] (setting [6]) it was 0.4 µM; against cardiac Herg channel it was above 60 µM.
As to `CC(C)(O)CNC(=O)Cc1cc(Nc2c(Cl)cc(Cl)cc2Cl)ccc1F` [NH66], in test [2], the “increase of the amplitude of recombinant Kv7.2/3 currents” value is on record as “about 3.5 fold”. In test [2], the EC50 was 1 µM. For the same compound, the “V50 (parameter of potency for Kv7.2/3 At 5 μM)” value in test [2] is −30.3 mV. Also, the IC50 was 0.5 µM in test [3] (setting [8]); 0.5 µM in test [3] (setting [7]); 0.3 µM in test [4] (currents activated by 0.1 μM capsaicin, read-out: IC50 of inhibition of recombinant TRPV1 currents); above 60 µM on cardiac Herg channel.
As for `CC(C)(CO)CNC(=O)Cc1cc(Nc2c(Cl)cc(Cl)cc2Cl)ccc1F` [NH82], the EC50 in test [2] was found to be 0.5 µM. Further, in test [2], the “V50 (parameter of potency for Kv7.2/3 At 5 μM)” value was −41.1 mV. The results for the IC50 (in test [3] (setting [7]); in test [4] (setting [6]); against cardiac Herg channel) were 0.5 µM, 0.4 µM and above 100 µM, respectively.
In the case of `CC(C)(O)CCNC(=O)Cc1cc(Nc2c(Cl)cc(Cl)cc2Cl)ccc1F` [NH83], the EC50 in test [2] was 0.6 µM. In addition, the “V50 (parameter of potency for Kv7.2/3 At 5 μM)” value in test [2] is −37.3 mV. In addition, the “effect on DRG evoked spike discharge (in words)” value in test [3] is “slightly improved activity”. Besides, the IC50 in test [3] (setting [7]) came to 0.2 µM; in test [4] (setting [6]) it was 0.8 µM.
As for `CC(C)c1cc(Cl)cc(Cl)c1Nc1ccc(F)c(CC(=O)NCC(C)(C)O)c1` [NH91], in test [2], the “effect on amplitude at −40 mV and voltage-dependence of Kv7.2/3 channels (in words)” value (shortened to “effect on amplitude”) is “potently increase the amplitude left-shift the voltage-dependence of activation”; the EC50 came out at 2 µM; the “V50 (parameter of potency for Kv7.2/3 At 5 μM)” value is reported as −42.4 mV. Moreover, the “effect on DRG evoked spike discharge (in words)” value in test [3] was “prominently inhibits”. Moreover, the 50% inhibitory concentration (IC50) in test [3] (setting [7]) worked out at 1 µM. The “inhibition of capsaicin-evoked DRG spike discharge in the presence of XE991” value in test [1] (Kv7.2/3 channel blocker XE991 10 μM present, n=11) worked out at 50%. The IC50 in test [4] (setting [6]) was found to be 0.1 µM. The compound also gave an IC50 against cardiac Herg channel above 60 µM. Further, in test [5], the “effect on inward voltage-dependent Ca2+ and Na+ current in DRG neurons” value was “did not affect”.
In the case of `CC(C)(O)CCNC(=O)Cc1cc(Nc2c(Cl)cc(Cl)cc2C2CC2)ccc1F` [NH101], in test [2], the “effect on amplitude” value is “potently increase the amplitude left-shift the voltage-dependence of activation”; the EC50 came out at 0.2 µM; the “V50 (parameter of potency for Kv7.2/3 At 5 μM)” value is −67.4 mV. In addition, in test [3] (setting [7]), the concentration for half-maximal inhibition (IC50) is 0.2 µM. In addition, in test [4] (setting [6]), the IC50 is 0.1 µM. The same compound yielded a 50% inhibitory concentration (IC50) against cardiac Herg channel above 50 µM.
As to `O=C(Cc1cc(Nc2c(Cl)cc(Cl)cc2Cl)ccc1F)NC1CCC(O)C1` (stereo not shown) [NH110], in test [2], the “effect on amplitude” value is “potently increase the amplitude left-shift the voltage-dependence of activation”; the concentration for a half-maximal effect (EC50) came out at 7.3 µM; the “V50 (parameter of potency for Kv7.2/3 At 5 μM)” value is on record as −38.5 mV. Further, the “effect on DRG evoked spike discharge (in words)” value in test [3] was “inhibits”. Further, in test [3] (setting [7]), the concentration for half-maximal inhibition (IC50) was 0.2 µM.
As for `CCOC(=O)Nc1ccc(NCc2ccc(F)cc2)cc1N` [Retigabine, N-(2-amino-4-(4-fluorobenzylamino)-phenyl)carbamic acid ethyl ester, reference compound], in test [2], the “V50 (parameter of potency for Kv7.2/3 At 5 μM)” value was −30.4 mV. Further, the figures for the half-inhibitory concentration (IC50) (in test [3] (setting [7]); on cardiac Herg channel) were 5 µM and above 30 µM, respectively. Also, the “IC50 on TRPV1” value in test [4] (N = 5-10, Retigabine: No effect at 30) is recorded as “No effect”.

The values are drawn from patent US11427531B2, “Modulators of potassium ion and TRPV1 channels and uses thereof” (Ramot at Tel-Aviv University Ltd., priority 2017, dated 2022).
